Here are results for 19 compounds from patent publication US9708308B2, “Factor IXa inhibitors” (Merck Sharp & Dohme Corp., priority 2012, dated 2017).

In the assay the target is Factor IXa (Homo sapiens, UniProt P00740). The assay is described as follows: Determination of inhibitory activity against Factor IXa (cleavage of fluorescent peptide substrate). The settings on record: cleavage of fluorescent peptide CH3SO2-D-CHG-Gly-Arg-AFC, release of AFC; read-out: FIXa IC50. The class given is biochemical. The procedure, abridged: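 Factor IXa activity followed via cleavage of CH3SO2-D-CHG-Gly-Arg-AFC, releasing AFC. Fluorescence read at excitation 405 nm, emission 510 nm.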
Sequence of Factor IXa (P00740 227-461 limits assumed): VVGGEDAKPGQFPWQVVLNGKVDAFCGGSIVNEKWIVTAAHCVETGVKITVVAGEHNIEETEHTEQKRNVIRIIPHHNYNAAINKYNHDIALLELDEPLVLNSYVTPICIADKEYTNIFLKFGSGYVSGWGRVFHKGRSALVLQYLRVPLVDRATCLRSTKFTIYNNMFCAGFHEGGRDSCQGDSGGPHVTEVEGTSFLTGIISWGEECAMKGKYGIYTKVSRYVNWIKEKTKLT
Sequence of Factor IXa (P00740 47-191 partner limits assumed): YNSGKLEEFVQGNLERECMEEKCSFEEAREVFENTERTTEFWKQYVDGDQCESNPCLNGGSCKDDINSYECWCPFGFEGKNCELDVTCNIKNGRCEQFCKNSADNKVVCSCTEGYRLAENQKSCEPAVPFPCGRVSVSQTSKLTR

Turning to `C[C@](O)(C(=O)Nc1ccc2c(N)noc2c1)[C@H]1OCCN(c2cccc(-c3ccnnc3)n2)C1=O` [Example 67, (R)—N-(3-aminobenzo[d]isoxazol-6-yl)-2-hydroxy-2-((R)-3-oxo-4-(6-(pyridazin-4-yl)pyridin-2-yl)morpholin-2-yl)propanamide], the half-inhibitory concentration (IC50) is 66.9 nM. For the compound `C[C@](O)(C(=O)Nc1ccc2c(N)noc2c1)[C@H]1OCCN(c2nn(-c3ccnnc3)cc2F)C1=O` [Example 47, (R)—N-(3-aminobenzo[d]isoxazol-6-yl)-2-((R)-4-(4-fluoro-1-(pyridazin-4-yl)-1H-pyrazol-3-yl)-3-oxomorpholin-2-yl)-2-hydroxypropanamide], the IC50 worked out at 6.91 nM. To `C[C@](O)(C(=O)Nc1cc(Cl)c2c(N)noc2c1)[C@H]1OCCN(c2ccn(-c3ccnnc3)n2)C1=O` [Example 122, (R)—N-(3-amino-4-chlorobenzo[d]isoxazol-6-yl)-2-hydroxy-2-((R)-3-oxo-4-(1-(pyridazin-4-yl)-1H-pyrazol-3-yl)morpholin-2-yl)propanamide] belongs 129 nM; to `C[C@](O)(C(=O)Nc1cc(Cl)c2c(N)noc2c1)[C@H]1OCCN(c2nn(-c3ccnc(C(F)(F)F)c3)cc2F)C1=O` [Example 121, (R)—N-(3-amino-4-chlorobenzo[d]isoxazol-6-yl)-2-((R)-4-(4-fluoro-1-(2-(trifluoromethyl)pyridin-4-yl)-1H-pyrazol-3-yl)-3-oxomorpholin-2-yl)-2-hydroxypropanamide], 193 nM; to `C[C@@H]1CN(c2nn(-c3ccnnc3)cc2F)C(=O)[C@@H]([C@@H](O)C(=O)Nc2ccc3c(N)noc3c2)O1` [Example 158, (R)—N-(3-aminobenzo[d]isoxazol-6-yl)-2-((2R,6R)-4-(4-fluoro-1-(pyridazin-4-yl)-1H-pyrazol-3-yl)-6-methyl-3-oxomorpholin-2-yl)-2-hydroxyacetamide], 4.4 nM. As to `C[C@](O)(C(=O)Nc1cc(Cl)c2c(N)noc2c1)[C@H]1OCCN(c2ccn(-c3ccnc(C(F)(F)F)c3)n2)C1=O` [Example 120, (R)—N-(3-amino-4-chlorobenzo[d]isoxazol-6-yl)-2-hydroxy-2-((R)-3-oxo-4-(1-(2-(trifluoromethyl)pyridin-4-yl)-1H-pyrazol-3-yl)morpholin-2-yl)propanamide], the IC50 worked out at 1050 nM.

Regarding `C[C@]1([C@@H](O)C(=O)Nc2ccc3c(N)noc3c2)OCCN(c2ccn(-c3cncc(C(F)(F)F)c3)n2)C1=O` [Example 87, (R)—N-(3-aminobenzo[d]isoxazol-6-yl)-2-hydroxy-2-((R)-2-methyl-3-oxo-4-(1-(5-(trifluoromethyl)pyridin-3-yl)-1H-pyrazol-3-yl)morpholin-2-yl)acetamide], the IC50 turned out to be 228 nM. In the case of `C[C@](O)(C(=O)Nc1cc(F)c2c(N)noc2c1)[C@H]1OCCN(c2ccn(-c3ccnc(C#N)c3)n2)C1=O` [Example 132, (R)—N-(3-amino-4-fluorobenzo[d]isoxazol-6-yl)-2-((R)-4-(1-(2-cyanopyridin-4-yl)-1H-pyrazol-3-yl)-3-oxomorpholin-2-yl)-2-hydroxypropanamide], the IC50 was found to be 117 nM. Under `C[C@H]1CN(c2nn(-c3ccnnc3)cc2F)C(=O)[C@@H]([C@@H](O)C(=O)Nc2ccc3c(N)noc3c2)O1` [Example 161, (R)—N-(3-aminobenzo[d]isoxazol-6-yl)-2-((2R,6S)-4-(4-fluoro-1-(pyridazin-4-yl)-1H-pyrazol-3-yl)-6-methyl-3-oxomorpholin-2-yl)-2-hydroxyacetamide] stands 32.3 nM; under `C[C@H]1CN(c2ccn(-c3ccnnc3)n2)C(=O)[C@@H]([C@@H](O)C(=O)Nc2ccc3c(N)noc3c2)O1` [Example 160, (R)—N-(3-aminobenzo[d]isoxazol-6-yl)-2-hydroxy-2-((2R,6S)-6-methyl-3-oxo-4-(1-(pyridazin-4-yl)-1H-pyrazol-3-yl)morpholin-2-yl)acetamide], 2.27 nM; under `[2H]C([2H])([2H])Oc1cc(-n2ccc(N3CCO[C@H]([C@@](C)(O)C(=O)Nc4ccc5c(N)noc5c4)C3=O)n2)cnn1` [Example 40, (2R)—N-(3-amino-1,2-benzoxazol-6-yl)-2-hydroxy-2-[(2R)-3-oxo-4-[1-[6-(trideuteriomethoxy)pyridazin-4-yl]pyrazol-3-yl]morpholin-2-yl]propanamide], 3.7 nM. Take `C[C@]1([C@@H](O)C(=O)Nc2ccc3c(N)noc3c2)OCCN(c2ccn(-c3ccncc3F)n2)C1=O` [Example 90, (R)—N-(3-aminobenzo[d]isoxazol-6-yl)-2-((R)-4-(1-(3-fluoropyridin-4-yl)-1H-pyrazol-3-yl)-2-methyl-3-oxomorpholin-2-yl)-2-hydroxyacetamide]: the IC50 stood at 23.5 nM. Turning to `C[C@](O)(C(=O)Nc1ccc2c(N)noc2c1)[C@H]1OCCN(c2nn(-c3cnnc(C(F)(F)F)c3)cc2F)C1=O` [Example 50, (R)—N-(3-aminobenzo[d]isoxazol-6-yl)-2-((R)-4-(4-fluoro-1-(6-(trifluoromethyl)pyridazin-4-yl)-1H-pyrazol-3-yl)-3-oxomorpholin-2-yl)-2-Hydroxypropanamide], the IC50 came out at 1.89 nM.

For `Cc1cc(N2CCO[C@H]([C@@](C)(O)C(=O)Nc3ccc4c(N)noc4c3)C2=O)nn1-c1cnnc(C#N)c1` [Example 3], the half-inhibitory concentration (IC50) was determined as 68.4 nM. Under `C[C@](O)(C(=O)Nc1cc(F)c2c(N)noc2c1)[C@H]1OCCN(c2nn(-c3ccncc3)cc2F)C1=O` [Example 134, (R)—N-(3-amino-4-fluorobenzo[d]isoxazol-6-yl)-2-((R)-4-(4-fluoro-1-(pyridin-4-yl)-1H-pyrazol-3-yl)-3-oxomorpholin-2-yl)-2-hydroxypropanamide] stands 55.2 nM; under `CCOc1cc(-n2ccc(N3CCO[C@H]([C@@](C)(O)C(=O)Nc4ccc5c(N)noc5c4)C3=O)n2)ccn1` [Example 23, (R)—N-(3-aminobenzo[d]isoxazol-6-yl)-2-((R)-4-(1-(2-ethoxypyridin-4-yl)-1H-pyrazol-3-yl)-3-oxomorpholin-2-yl)-2-hydroxypropanamide], 113 nM; under `COc1cc(-n2nc(N3CCO[C@H]([C@@](C)(O)C(=O)Nc4ccc5c(N)noc5c4)C3=O)cc2C)ccn1` [Example 36, (R)—N-(3-aminobenzo[d]isoxazol-6-yl)-2-hydroxy-2-((R)-4-(1-(2-methoxypyridin-4-yl)-5-methyl-1H-pyrazol-3-yl)-3-oxomorpholin-2-yl)propanamide], 96.3 nM. Consider `C[C@](O)(C(=O)Nc1cc(Cl)c2c(N)noc2c1)[C@H]1OCCN(c2nn(-c3ccnnc3)cc2F)C1=O` [Example 123, (R)—N-(3-amino-4-chlorobenzo[d]isoxazol-6-yl)-2-((R)-4-(4-fluoro-1-(pyridazin-4-yl)-1H-pyrazol-3-yl)-3-oxomorpholin-2-yl)-2-hydroxypropanamide], for which the IC50 came to 21.8 nM. To `C[C@]1([C@@H](O)C(=O)Nc2ccc3c(N)noc3c2)OCCN(c2ccn(-c3ccc(S(C)(=O)=O)cc3)n2)C1=O` [Example 84, (R)—N-(3-aminobenzo[d]isoxazol-6-yl)-2-hydroxy-2-((R)-2-methyl-4-(1-(4-(methylsulfonyl)phenyl)-1H-pyrazol-3-yl)-3-oxomorpholin-2-yl)acetamide] belongs 13.2 nM.

For orientation: IC50 means the point on the concentration scale where inhibition reaches its midpoint.
